Data taken from patent publication US7897587B2, “Topical dermatological formulations and use thereof” (Nycomed US Inc., priority 2004, dated 2011).

Assay: Solubility of fluticasone propionate in propylene glycol, propylene carbonate and mixtures thereof
Format: physicochemical
Settings: 25° C.
Description: In the drawing FIGURE this solubility data obtained at 25° C. is plotted as the dark line and the idealized (theoretical) solubility is plotted as the light line. In “ideal” solutions, the effect of each component is additive in a linear fashion. If solvent A has a property with a value of 50 and solvent B a value of 100 for the same property, an equal blend of A and B would be expected to give a value of 75 for that property. […] The lightly colored line represents “ideal” linear behavior. Since propylene glycol can solubilize about 10 times more drug than propylene carbonate, the “ideal” line slopes down strongly as we move from pure propylene glycol to pure propylene carbonate. […] Two important observations can be made.

CCC(=O)O[C@]1(C(=O)SCF)[C@H](C)C[C@H]2[C@@H]3C[C@H](F)C4=CC(=O)C=C[C@]4(C)[C@@]3(F)[C@@H](O)C[C@@]21C [Fluticasone propionate, 6α,9α-difluoro-17α(1-oxopropoxy)-11β-hydroxy-16α-methyl-3-oxo-androsta-1,4-diene-17β-carbothioic acid S-fluoromethyl ester] gave a Fluticasone propionate solubility (% propylene glycol/% propylene carbonate 0/100) of 1.17 % w/w, a Fluticasone propionate solubility (% propylene glycol/% propylene carbonate 12.5/87.5) of 1.72 % w/w and a Fluticasone propionate solubility (% propylene glycol/% propylene carbonate 25/75) of 1.56 % w/w. It also gave a Fluticasone propionate solubility (% propylene glycol/% propylene carbonate 50/50) of 1.09 % w/w, a Fluticasone propionate solubility (% propylene glycol/% propylene carbonate 75/25) of 0.48 % w/w and a Fluticasone propionate solubility (% propylene glycol/% propylene carbonate 100/0) of 0.08 % w/w. The “Measured solubility compared with ideal (linear, theoretical) solubility” value (all propylene glycol/propylene carbonate mixtures) was “the measured solubility exceeds the ideal solubility”, the “Measured solubility in blends compared with solubility in single solvent” value (blends containing about 99 to 45% propylene carbonate) was “the measured solubility exceeds the solubility in propylene glycol” and the “Drug solubilized by propylene glycol relative to propylene carbonate” value (pure solvents) was “about 10 times”.
